Reference: ChEMBL document CHEMBL1132272, “Prediction of ligand-receptor binding thermodynamics by free energy force field three-dimensional quantitative structure-activity relationship analysis: applications to a set of glucose analogue inhibitors of glycogen phosphorylase” (J Med Chem, 1999)

Experiment: The compound was evaluated for the inhibition of glycogen phosphorylase

SMILES | Ki
CO[C@@H]1O[C@H](CO)[C@H](O)[C@H](O)[C@H]1O | 24700 µM
NC(=O)C1OC(CO)C(O)C(O)C1O (stereo in doubt; 11) | 440 µM
NC(=O)C1OC(CO)C(O)C(O)C1O (stereo in doubt; 10) | 370 µM
CC1OC(CO)C(O)C(O)C1O (stereo unspecified) | 53100 µM
NC(=O)N[C@H]1O[C@H](CO)[C@@H](O)[C@H](O)[C@H]1O | 140 µM
OCC1OC(S)C(O)C(O)C1O (stereo unspecified) | 1000 µM
O=C(CBr)N[C@H]1O[C@@H](CO)[C@@H](O)[C@H](O)[C@@H]1O | 44 µM
CNC(=O)C1OC(CO)C(O)C(O)C1O (stereo in doubt; 8) | 160 µM
O=C(N[C@H]1O[C@H](CO)[C@@H](O)[C@H](O)[C@H]1O)c1ccccc1 | 81 µM
OCC1OC(CO)C(O)C(O)C1O (stereo unspecified) | 1500 µM
OC[C@H]1O[C@](O)(CO)[C@@H](O)[C@H](O)[C@H]1O | 15800 µM
CCC(=O)N[C@H]1O[C@H](CO)[C@@H](O)[C@H](O)[C@H]1O | 39 µM

The remaining molecules from weak to strong by Ki, led by results:

Ki | SMILES
36700 µM | CNC(=O)C1OC(CO)C(O)C(O)C1O (stereo in doubt; 22)
34500 µM | NCC1OC(CO)C(O)C(O)C1O (stereo unspecified)
9000 µM | N#CC[C@@H]1O[C@H](CO)[C@@H](O)[C@H](O)[C@H]1O
5400 µM | O=C(Nc1ccccc1)C1OC(CO)C(O)C(O)C1O (stereo unspecified)
980 µM | NNC(=O)[C@@H]1O[C@H](CO)[C@@H](O)[C@H](O)[C@H]1O
370 µM | NCC(=O)N[C@H]1O[C@@H](CO)[C@@H](O)[C@H](O)[C@@H]1O
94 µM | CCCC(=O)N[C@H]1O[C@H](CO)[C@@H](O)[C@H](O)[C@H]1O
45 µM | O=C(CCl)N[C@H]1O[C@H](CO)[C@@H](O)[C@H](O)[C@H]1O
32 µM | CC(=O)N[C@H]1O[C@H](CO)[C@@H](O)[C@H](O)[C@H]1O
